The values that follow come from patent US20070037887A1, “Blockade of mtor to prevent a hormonal adaptive response” (University of Virginia Patent Foundation, priority 2003, published 2007).

The structures appear in SMILES notation.

For assay [1], the system named is Shc. Kind of assay: E2-induced Shc phosphorylation in MCF-7 cells. It counts as cell-based, human. The settings on record: 10^−10 M E2 for 3 minutes. The procedure: Because ERα, Shc and MAP kinase are all involved in E2 action in MCF-7 cells, upstream components responsible for Shc phosphorylation were determined by measuring the effects of PP2, ICI and PD98059 on E2-induced phosphorylation of Shc. In the presence of the inhibitors, MCF-7 cells were stimulated with vehicle or 10^−10 M E2 for 3 minutes and the status of Shc phosphorylation was examined. […] No effects of these inhibitors were apparent in the absence of E2 stimulation. […] Each of these inhibitors was capable of reducing the rate of cell proliferation in LTED cells.

Assay [2] relates to LTED cells. The experiment in a line: Actin cytoskeleton (phalloidin staining) and ERα localization in LTED cells. It counts as cell-based, human. The settings on record: 10^−9 M. The text has this:
It has been reported that cell mobility is controlled by a network of membrane initiated signals, such as activation of the Shc-Ras-MAPK pathway. Recently, it was reported that cell focal adhesions are highly dynamic structures. Cells can rapidly respond to the stimulation by growth factors and show reorganization of their cytoskeleton and cell shape. To examine E2 effects on reorganization of the actin cytoskeleton, the distribution of F-actin and also redistribution of the ERα localization in LTED and MCF-7 cells was determined by phalloidin staining. Untreated LTED cells expressed low actin polymerization and a few focal adhesion points. After E2 stimulation in contrast, the cytoskeleton underwent remodeling associated with formation of cellular ruffles, lamellipodias and leading edges, alterations of cell shape and loss of mature focal adhesion points. A subcellular redistribution of ERα to these dynamic membranes upon E2 stimulation represented another important feature of LTED cells. The ER antagonist ICI 182 780 at 10^−9 M blocked E2-induced ruffle formation as well as redistribution of ERα to the membrane with little effect by itself.

Assay [3] concerns mTOR signaling. The settings on record: in cells; cited from earlier work.
The test system of assay [4] is MCF-7 cells. The experiment in a line: Estradiol dose response of growth, wild type MCF-7 cells. The class given is cell-based, human. The settings on record: PD 98059 co-administered with TGF alpha. The procedure:
(§1) As further evidence of the role of MAP kinase, PD 98059 was administered to LTED cells and its effect on level of sensitivity to estradiol was examined.
To investigate whether the MAP and P13 kinase pathways have a role in estradiol induced cell proliferation, the following experiments were conducted. […] Blockade of this effect was obtained with the MAPK inhibitor PD98059. Administration of TGF at a dose of 10 ng/ml caused a 2-log shift to the left in the ability of estradiol to stimulate the growth of wild-type MCF-7 cells. […] Dual inhibition of PI3K with LY40029 and MAPK with U0126 shifted the level of sensitivity to estradiol more dramatically, by more than 2 logs to the right. On the basis of these observations, it is believed that adaptive hypersensitivity involves the joint activation of the PI3K and MAPK pathways.

In assay [5] the test system is LTED cells. Kind of assay: [3H] thymidine incorporation into DNA, LTED cells. The class given is cell-based, human. The settings on record: inhibitors of the MAP kinase pathway. The protocol: FIGS. 5A & 5B represent the effect of FTS on DNA synthesis in MCF-7 (FIG. 5A) and LTED (FIG. 5B) cells. One hundred thousand cells were plated into each well of 24-well plates. Two days later, the cells were re-fed with IMEM containing 5% DCC-FBS. After another two days, cells were treated in quadruplicate with the compounds indicated for 18 hours. [^3H] thymidine (1 μCi/well) was added during the last 2 h of incubation. [^3H] thymidine incorporated into DNA was normalized by protein content.
The inhibitory effect of FTS on cell growth may be the result of inhibition of cellular proliferation, induction of apoptosis, or both. To determine the mechanism by which FTS inhibits cell growth, FTS's effect on DNA synthesis and apoptosis was investigated. […] Estradiol (10^−10 M) increased [^3H] thymidine incorporation by 2.6 fold compared to the control level in MCF-7 cells.
(In general: Incorporation of labelled thymidine or its analogues reports DNA synthesis.)

Assay [6] deals with LTED cells. Kind of assay: Estradiol dose response of growth (hypersensitivity), LTED cells. The settings on record: PD 98059 alone. The class given is cell-based, human.
Text: During the phase when tamoxifen first begins to stimulate tumor growth, removal of tamoxifen and administration of very low doses of estradiol stimulates tumor growth. In marked contrast, wild type tumors not exposed to tamoxifen long term are not stimulated by such low doses of estradiol. Taken together, these experiments indicate that either estradiol deprivation or blockade of estrogen action with antiestrogens enhances the level of sensitivity to estrogens or to the estrogenic properties of tamoxifen. This phenomenon of adaptive hypersensitivity is believed to be responsible for the superiority of aromatase inhibitors over tamoxifen in a variety of clinical settings.
as §1
To investigate whether the MAP and P13 kinase pathways have a role in estradiol induced cell proliferation, the following experiments were conducted. […] Blockade of this effect was obtained with the MAPK inhibitor PD98059. Administration of TGF at a dose of 10 ng/ml caused a 2-log shift to the left in the ability of estradiol to stimulate the growth of wild-type MCF-7 cells. […] Dual inhibition of PI3K with LY40029 and MAPK with U0126 shifted the level of sensitivity to estradiol more dramatically, by more than 2 logs to the right. […]

Assay [7] relates to hormone dependent breast cancer. The settings on record: women responding initially to tamoxifen then relapsing, crossed over; cited from earlier work.
For assay [8], the system named is mTOR-raptor complex. Kind of assay: Coimmunoprecipitation of raptor with mTOR, compound added to cell extracts or immune complexes. It counts as binding. The settings on record: caffeine 1 mM, LY294002 10 μM, rapamycin 1 μM plus FKBP12 10 μM, wortmannin 1 μM. The procedure: 293T cells were transfected with pcDNA3 alone (Vec.) or with a combination of pcDNA3AU1-mTOR, pcDNA33HA-Raptor, and pcDNA33HA-mLST8. Extracts of the cells were incubated with increasing concentrations of FTS before AU1-mTOR was immunoprecipated. Samples of the immune complexes were incubated with [γ-^32P]ATP and recombinant [His^6]PHAS-I, then subjected to SDS-PAGE and transferred to an immobilon membrane. After obtaining a phosphorimage of the membrane to detect ^32P-PHAS-I, the membrane was immunoblotted with PThr^36/45 antibodies. Other samples of the immune complexes were subjected to SDS-PAGE and immunoblots were prepared with antibodies to the HA epitope or to mTOR (see FIG. 13A). Extracts of nontransfected 293T cells were incubated with increasing concentrations of FTS before mTOR was immunoprecipated with mTAb1. A control immunoprecipitation was conducted using nonimmune IgG (NI). Immune complexes were subjected to SDS-PAGE and immunoblots were prepared with antibodies to mLST8, mTOR, and raptor.
Samples of extracts from 293T cells overexpressing AU1-mTOR, HA-raptor, and HA-mLST8 were incubated for 1 h with increasing concentrations of FTS (●, ▴, ▪) or GTS (∘, Δ, □) before immunoprecipitations were conducted with anti-AU1 antibodies. mTOR kinase activity (●, ∘) was determined by measuring ^32P incorporation into [His^6]PHAS-I in immune complex kinases assays performed with [γ-^32P]ATP (see FIG. 14A). The relative amounts of HA-raptor (▴, Δ) and HA-mLST8 (▪, □) that coimmunoprecipitated with AU1-mTOR were determined after immunoblotting with anti-HA antibodies (see FIG. 14B). The results (mean values+S.E. from 5 experiments) are expressed as percentages of the mTOR activity (FIG. 14A) or coimmunoprecipitating proteins (FIG. 14B) from samples incubated without FTS or GTS, and have been corrected for the amounts of AU1-mTOR immunoprecipitated.
293T cells were transfected with pcDNA3 alone (Vec.) or with a combination of pcDNA3AU1-mTOR, pcDNA33HARaptor, and pcDNA33HA-mLST8. AU1-mTOR was immunoprecipitated and samples of the washed immune complexes were at incubated […] for 30 min with no inhibitors or with the following: caffeine (1 mM), FTS (50 μM), LY294002 (10 μM), rapamycin (1 μM) plus FKBP12 (10 μM), and 1 μM wortmannin. To prevent destruction of wortmannin, incubations were conducted in the absence of thiol reducing agents. Samples of the immune complexes were incubated for 10 min with 10 mM MnCl2, 1 mM [γ-^32P]ATP, and 50 μg/ml [His^6]PHAS-I to assess mTOR activity. Other samples were rinsed twice, subjected to SDS-PAGE, and immunoblotted with anti-HA and anti-AU1 antibodies to determine the amounts of HA-raptor and HA-mLST8 associated with AU1-mTOR. The relative amounts of ^32P incorporated into PHAS-I were determined by phosphorimaging (see FIG. 15B).

For assay [9], the system named is Shc. Kind of assay: Shc tyrosine phosphorylation in LTED cells. It counts as cell-based, human. The settings on record: at 3 min and 15 min respectively. The protocol: Shc proteins are known to couple tyrosine kinase receptors to the MAPK pathway and activation of Shc involves the phosphorylation of SHC itself. To investigate if the Shc pathway was involved in the rapid action of estradiol in LTED cells, tyrosine phosphorylated proteins were immuno-precipitated and tested for the presence of Shc under E2 treatment. E2 rapidly stimulated Shc tyrosine phosphorylation in a dose and time dependent fashion with a peak at 3 minutes. The pure estrogen receptor antagonist, fulvestrant, blocked E2-induced Shc and MAPK phosphorylation at 3 min and 15 min respectively.

The subject of assay [10] is MAP kinase. Kind of assay: MAP kinase activation in LTED cells. The class given is cell-based, human. The procedure:
Upregulation of MAP kinase and PI-3-kinase could reflect either a constitutive activation of growth factor receptors, an increase in the endogenous secretion of growth factors, or other mechanisms. Inhibition of MAP kinase with a pure antiestrogen would rule out the possibility of constitutive activation of growth factor receptors or growth factor secretion. Accordingly, the pure anti-estrogen, faslodex (fulvestrant) was administered and the level of activation of MAP kinase in LTED cells was examined.
Estrogen deprivation might trigger activation of a non-genomic, estrogen regulated, MAP kinase pathway which utilizes Shc. […] The addition of E2 stimulated MAP kinase phosphorylation in LTED cells within minutes. The increased MAP kinase phosphorylation by E2 was time and dose-dependent being greatly stimulated at 15 min and remaining elevated for at least 30 min. Maximal stimulation of MAP kinase phosphorylation was at 10^−10 M of E2.

For the compound `C[C@]12CC[C@@H]3c4ccc(O)cc4C[C@@H](CCCCCCCCC[S+]([O-])CCCC(F)(F)C(F)(F)F)[C@H]3[C@@H]1CC[C@@H]2O` (stereo partly drawn) [ICI 182 780], the “E2-induced Shc phosphorylation” value in assay [1] was “effectively inhibited”. In [2], the “E2-induced ruffle formation and redistribution of ERα to the membrane” value was “blocked”.
Turning to `CC[C@H](C)[C@@H](CO[C@@H](Cc1ccccc1)C(=O)N[C@@H](CCS(C)(=O)=O)C(=O)OC(C)C)NC[C@@H](N)CS` [L-744,832], the “time in which inhibition of mTOR signaling occurs” value in [3] is at most 1.5 h.
Turning to `COc1cccc(-c2cc(=O)c3ccccc3o2)c1N` [PD98059], the “TGF alpha induced left shift in estradiol dose response” value in assay [4] is recorded as “returned to baseline”; in assay [4] (listed as PD 98059), “returned back to baseline”. The “E2-induced Shc phosphorylation” value in assay [1] was “did not influence”. The “incorporation of tritiated thymidine into DNA” value in assay [5] is “block the incorporation”. In addition, in assay [6], the “shift to the right of estradiol dose response curves” value was “approximately one-half log”.
Regarding `CCC1(c2ccc(N)cc2)CCC(=O)NC1=O` (stereo not drawn) [aminoglutethimide], the “women with secondary clinical benefit” value in assay [7] is 50%.
For `Cn1c(=O)c2c(ncn2C)n(C)c1=O` [caffeine, reference compound], the “decrease of the association of AU1-mTOR and HA-raptor” value in [8] is on record as “little, if any, effect”.
Consider `C[C@]12CC[C@@H]3c4ccc(O)cc4C[C@@H](CCCCCCCCC[S+]([O-])CCCC(F)(F)C(F)(F)F)[C@H]3[C@@H]1CC[C@@H]2O` (stereo partly drawn) [fulvestrant], for which the “E2-induced Shc and MAPK phosphorylation” value in [9] is “blocked”. In addition, the “level of activated MAP kinase” value in assay [10] is “returned the level of activated MAP kinase back to the level seen in wild type MCF-7 cells”.
